According to patent publication US7605131B2, “EML4-ALK fusion gene” (Astellas Pharma Inc., priority 2007, dated 2009):
Blank lines part the entries; values can stand above or below the compound they belong to.

How the values were obtained:
[1] = target: T1, EML4-ALK fusion polypeptide v3 (Homo sapiens, UniProt Q9UM73, D1529E/I1461V/K1491R); test: Intracellular autophosphorylation of EML4-ALK fusion polypeptide v3 in v3 expressing 3T3 cells; type: cell-based; settings: 4 hours
Text: The EML4-ALK fusion polypeptide v3 expression vector (designated as EML4-ALKv3/pMXS) was constructed by subcloning the insert of the EML4-ALKv3/pT7Blue-2 in pMXS plasmid (JBC 275, 24945-24952, 2000). Also, using the EML4-ALKv3/pT7Blue-2, an expression vector (designated as FLAG-EML4-ALKv3/pMX-iresCD8) which expresses both EML4-ALK fusion polypeptide v3 having the FLAG tag at the N-terminus and CD8 was constructed by subcloning the insert in pMX-iresCD8 plasmid (JBC 276, 39012-39020, 2001). The 3T3 cells transfected with the EML4-ALKv3/pMXS described above were inoculated subcutaneously to nude mice at 5×10^6 cells/mouse and observed after 20 days. […] Hereinafter, the 3T3 cells in which EML4-ALK fusion polypeptide v3 is expressed are designated as the v3 expressing 3T3 cells.

v3 expressing 3T3 cells = test: Anchorage independent growth of v3 expressing 3T3 cells (spheroid plate, CellTiter-Glo); type: cell-based
Procedure: Measurement for anchorage independent cell growth (colony method, etc) has been known to be a system for investigating an antitumor effect (pharmacologic effect) of compounds (Clinical Oncology, second edition, Cancer and Chemotherapy Publishers Inc.). In place of the colony method, there is a following method using spheroid plates for measuring the growth of non-attached cells.
(§1) The v3 expressing 3T3 cells (Example 2) were seeded to a 96 well spheroid plate (Sumilon Celltight Spheroid 96U, Sumitomo Bakelite Inc.) at 3000 cells per well in a medium (Invitrogen) containing 10% fetal bovine serum. […] At the same time, cells were counted before the addition of drugs (Day 0). Then, cells were cultured under 5% CO2, at 37° C. for 3 days, mixed with a reagent for measuring cell number (CellTiter-Glo™ Luminescent Cell Viability Assay; Promega Inc.) stirred for 20 minutes, and the measurements (day 3) were carried out using a luminometer (ML3000 microtiter plate luminometer; Dynatech Laboratories Inc.).

NCI-H2228 cells = test: Anchorage independent growth of NCI-H2228 cells (spheroid plate); type: cell-based, human
Procedure: as §1
DMSO (control) or compound A-D was added to the NCI-H2228 cells at 10 μM or 30 nM and this investigation was performed by a similar manner described as in Example 5, except cells were cultured for 5 days after the addition of drugs.

NPM-ALK = target: T2, NPM-ALK (Homo sapiens, UniProt Q9UM73); settings: reported in Laboratory investigation 2005, Vol. 85, p. 1544-1554; cited from earlier work
T2 construct: the other entry of the earlier key: NPM1 (P06748, Nucleophosmin)

[2] = target: T1, EML4-ALK fusion polypeptide v3; test: In vitro autophosphorylation of purified EML4-ALK fusion polypeptide v3 (immunoblot, anti-phosphorylated ALK antibody); type: biochemical; design: expresses both EML4-ALK fusion polypeptide v3 having the FLAG tag at the N-terminus and CD8; made in house; host or cells: mouse BA/F3 cells infected with FLAG-EML4-ALKv3/pMX-iresCD8 retrovirus
Procedure: (§2) A recombinant retrovirus was produced according to a method of previous report (BBRC 356, 723-726, 2007) using FLAG-EML4-ALKv3/pMX-iresCD8. Mouse lymphatic cell line BA/F3 cells were infected therewith. The EML4-ALK fusion polypeptide v3 expressing BA/F3 cells were cultured in RPM1640 medium containing 10% of fetal bovine serum. To prepare the EML4-ALK fusion polypeptide v3, about 2×10^9 cells were collected. After washing 3 times with PBS, cells were lysed in a lysis solution (50 mM Tris.HCl (pH7.4), 150 mM NaCl, 1% Triton X100, 5 mM EDTA, 5 mM EGTA, 1 mM NaVO4, 1 mM DTT and protease inhibitor cocktail complete). The EML4-ALK fusion polypeptide v3 present in the supernatant obtained after a centrifugation was purified using ANTI-FLAG M2 Affinity Gel (SIGMA-ALDRICH Inc) according to the method described in the product information document. For washing and elution, the washing solution (50 mM Tris.HCl (pH7.4), 250 mM NaCl, 0.05% Brij35, 1 mM EDTA, 1 mM EGTA, 1 mM NaVO4, 1 mM DTT, complete) and the elution solution (50 mM Tris.HCl (pH7.4), 150 mM NaCl, 0.05% Brij35, 1 mM DTT, 0.5 mg/mL FLAG peptide) were used, respectively. Immunoblotting using anti-ALK antibody and anti FLAG M2 antibody (SIGMA-ALDRICH Inc.) and silver staining were carried out for the eluate to detect the EML4-ALK fusion polypeptide v3.
(§3) The EML4-ALK fusion polypeptide v3 purified as described above was diluted in a reaction solution (15 mM Tris HCl (pH7.4), 0.25 mM MgCl2, 0.01% Tween-20, 2 mM DTT), and then ATP was not added or ATP 20 μM was added. The respective mixtures were reacted at room temperature for 1 hour. After the reaction, the auto phosphorylated EML4-ALK fusion polypeptide v3 and the EML4-ALK fusion polypeptide v3 were detected by immunoblotting using anti-phosphorylated ALK antibody, which recognizes specifically the product phosphorylated at the 1604th tyrosine residue of ALK, and anti-ALK antibody, and quantitated by an image analysis system (VersaDoc Imaging System; Bio-Rad Inc.). […]

[3] = target: T1, EML4-ALK fusion polypeptide v3; test: In vitro phosphorylation of peptide substrate by purified EML4-ALK fusion polypeptide v3 (HTRF KinEASE-TK); type: biochemical; design: expresses both EML4-ALK fusion polypeptide v3 having the FLAG tag at the N-terminus and CD8; made in house; host or cells: mouse BA/F3 cells infected with FLAG-EML4-ALKv3/pMX-iresCD8 retrovirus; settings: TK substrate 1
Procedure: as §2, §3

NCI-H2228 = test: Anti-tumor test against NCI-H2228 subcutaneous tumor in NOD/SCID mice; type: in vivo; settings: 10 mg/kg orally once a day for 14 days, solvent group start day = 100% inhibition, finish day = 0%
Procedure: 3×10^6 cells of NCI-H2228 suspended in 50% BD Matrigel™ (BD Biosciences) in PBS were inoculated subcutaneously by injection to the back of 5 weeks old male NOD/SCID mice (Japan Charles River Inc.). […] Administrations were performed once a day for 14 days, and body weight and tumor size were measured every three or four day. Tumor volume was calculated using the following formula. [Tumor volume (mm^3)]=[Tumor major axis (mm)]×[tumor minor axis (mm)]^2×0.5

[4] = Mus musculus, NIH3T3, read-out: Inhibitory activity on v3 expressing 3T3 cells
[5] = Homo sapiens, NCI-H2228, read-out: Inhibitory activity on NCI-H2228 cells

T1 sequence (Q9UM73 with tags, fused parts or gaps I1461V/K1491R/D1529E): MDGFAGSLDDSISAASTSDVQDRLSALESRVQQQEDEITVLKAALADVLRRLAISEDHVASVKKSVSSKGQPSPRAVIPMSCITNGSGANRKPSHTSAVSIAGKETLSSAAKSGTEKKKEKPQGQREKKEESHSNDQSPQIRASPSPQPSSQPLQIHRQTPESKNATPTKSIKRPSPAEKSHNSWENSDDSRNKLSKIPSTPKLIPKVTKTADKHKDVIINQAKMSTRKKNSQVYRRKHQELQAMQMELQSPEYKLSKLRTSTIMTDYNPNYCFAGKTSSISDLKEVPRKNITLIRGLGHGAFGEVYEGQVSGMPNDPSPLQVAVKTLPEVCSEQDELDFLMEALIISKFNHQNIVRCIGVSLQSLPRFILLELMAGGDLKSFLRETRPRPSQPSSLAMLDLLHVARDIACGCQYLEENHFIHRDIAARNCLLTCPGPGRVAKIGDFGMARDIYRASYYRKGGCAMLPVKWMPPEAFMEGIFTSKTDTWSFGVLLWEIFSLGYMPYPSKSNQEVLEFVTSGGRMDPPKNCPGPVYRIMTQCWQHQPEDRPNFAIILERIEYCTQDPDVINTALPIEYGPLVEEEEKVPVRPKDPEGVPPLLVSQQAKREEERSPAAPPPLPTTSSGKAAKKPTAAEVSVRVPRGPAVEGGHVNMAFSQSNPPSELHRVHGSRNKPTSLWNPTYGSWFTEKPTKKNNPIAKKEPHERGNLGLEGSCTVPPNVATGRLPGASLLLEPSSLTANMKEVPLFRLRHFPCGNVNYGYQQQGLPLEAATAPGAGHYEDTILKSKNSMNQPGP
T2 sequence (Q9UM73 with tags, fused parts or gaps): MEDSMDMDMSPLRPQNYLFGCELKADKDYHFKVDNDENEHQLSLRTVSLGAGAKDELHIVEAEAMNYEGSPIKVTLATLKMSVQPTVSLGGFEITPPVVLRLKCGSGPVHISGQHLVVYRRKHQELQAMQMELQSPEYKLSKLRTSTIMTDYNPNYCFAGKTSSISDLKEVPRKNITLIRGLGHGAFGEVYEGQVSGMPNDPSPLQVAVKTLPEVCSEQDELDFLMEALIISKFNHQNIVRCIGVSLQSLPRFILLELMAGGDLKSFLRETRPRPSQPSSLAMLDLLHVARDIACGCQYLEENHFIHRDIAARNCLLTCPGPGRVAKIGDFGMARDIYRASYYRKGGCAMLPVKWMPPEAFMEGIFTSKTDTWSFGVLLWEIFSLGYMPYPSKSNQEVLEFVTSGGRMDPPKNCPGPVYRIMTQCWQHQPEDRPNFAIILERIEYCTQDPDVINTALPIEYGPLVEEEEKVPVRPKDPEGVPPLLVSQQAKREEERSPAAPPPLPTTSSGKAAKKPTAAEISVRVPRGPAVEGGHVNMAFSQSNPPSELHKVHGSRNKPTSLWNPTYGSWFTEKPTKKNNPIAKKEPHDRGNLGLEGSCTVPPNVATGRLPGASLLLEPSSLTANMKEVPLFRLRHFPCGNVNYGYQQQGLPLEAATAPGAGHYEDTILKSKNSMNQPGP

SMILES: O=C(COc1ccc(OC(F)(F)F)cc1)NCc1nc(C(=O)NCCc2cccc(Cl)c2)cs1 [B, N-[2-(3-chlorophenyl)ethyl]-2-[({[4-(trifluoromethoxy)phenoxy]acetyl}amino)methyl]-1,3-thiazole-4-carboxamide]
inhibition at 10 µM ([1]; NIH3T3, final concentration 10 μM): 76%
inhibition at 10 µM (v3 expressing 3T3 cells; [4]): 53%
inhibition at 10 µM (NCI-H2228 cells; [5]): 102%
inhibition at 10 µM ([2]; final concentration 10 μM): 100%
inhibition at 10 µM ([3]; final concentration 10 μM): 77%

SMILES: COc1cc(N2CCC(N3CCN(C)CC3)CC2)ccc1Nc1ncc(Cl)c(Nc2ccccc2S(=O)(=O)C(C)C)n1 [Compound C, 5-chloro-N^4-[2-(isopropylsulfonyl)phenyl]-N^2-{2-methoxy-4-[4-(4-methylpiperazin-1-yl)piperidin-1-yl]phenyl}pyrimidine-2,4-diamine]
inhibition at 0.03 µM (v3 expressing 3T3 cells; [4]): 182%
inhibition at 0.03 µM (NCI-H2228 cells; [5]): 137%
Inhibition rate of tumor growth (tumor volume) of NCI-H2228 (NCI-H2228): 132%

SMILES: COc1cc2ncnc(Nc3ccc(O)cc3)c2cc1OC [WHI-P131, 4-(4′-Hydroxyphenyl)amino-6,7-dimethoxyquinazoline]
Inhibition of the activity of NPM-ALK (NPM-ALK): inhibit the activity of NPM-ALK

Now from value to compound, other results behind:

Inhibition on autophosphorylation (v3 expressing 3T3 cells) ([1]; final concentration 10 μM): 94%
Inhibition on autophosphorylation ([2]; final concentration 10 μM): 100%
Inhibition on peptide substrate ([3]; final concentration 10 μM): 98%
SMILES: COc1cc2ncnc(Nc3ccc(O)c(Br)c3)c2cc1OC [A, 4-[(3′-Bromo-4′-hydroxyphenyl)amino]-6,7-dimethoxyquinazoline]
Inhibitory activity on v3 expressing 3T3 cells (v3 expressing 3T3 cells; final concentration 10 μM, 3 days, cell number at Day 0 = 100% inhibition, Day 3 = 0%): 172%
Inhibitory activity on NCI-H2228 cells (NCI-H2228 cells; final concentration 10 μM, 5 days, cell number at Day 0 = 100% inhibition, Day 5 = 0%): 164%
Inhibition of the activity of NPM-ALK (NPM-ALK): inhibit the activity of NPM-ALK

inhibition at 0.01 µM ([1]; NIH3T3, final concentration 10 nM): 106%
inhibition at 0.01 µM ([2]; final concentration 10 nM): 107%
inhibition at 0.01 µM ([3]; final concentration 10 nM): 98%
SMILES: CNS(=O)(=O)c1ccccc1Nc1nc(Nc2ccc(N3CCN(C)CC3)cc2OC)ncc1Br [D, 2-[(5-bromo-2-{[2-methoxy-4-(4-methylpiperazin-1-yl)phenyl]amino}pyrimidin-4-yl)amino]-N-methylbenzenesulfonamide]
inhibition at 0.03 µM (v3 expressing 3T3 cells; [4]): 206%
inhibition at 0.03 µM (NCI-H2228 cells; [5]): 141%
